Test results published in paper PMC9315535 (Microorganisms, 2022).

Experiments:
[1] = system: ZIKV NS2B/NS3 protease; settings: Targeted virus ZIKV; cited from earlier work
[2] = system: YFV NS2B/NS3 protease; settings: cited from earlier work
[3] = system: CHIKV nsP2 protease; design: method as in PMID 33661906; settings: Targeted virus CHIKV; cited from earlier work
[4] = biological target: T1, ZIKV NS2B/NS3pro (Zika virus, UniProt A0A140DLX4); assay: Thermal unfolding followed by Trp fluorescence, ZIKV protease; type: binding; settings: protease alone 43 °C
[5] = system: Zika virus (strain ZIKVBR); assay: Virucidal / time-of-drug addition plaque-forming assay, ZIKV; type: cell-based; settings: 50 µM, Vero cells
[6] = system: Chikungunya virus (strain ECSA); assay: Virucidal / time-of-drug addition plaque-forming assay, CHIKV; type: cell-based; settings: 50 µM, virus and compound incubated 1 h at RT, Vero cells
[7] = biological target: T2, CHIKV nsP2pro (Chikungunya virus, UniProt Q8JUX6); assay: Thermal unfolding followed by Trp fluorescence, CHIKV protease; type: binding
[8] = biological target: T1, ZIKV NS2B/NS3pro; assay: biochemical; type: binding
[9] = system: yellow fever virus (vaccinal strain); type: cell-based
[10] = system: Vero cells
[11] = ref https://www.drugbank.ca/drugs/DB00140; cited from earlier work
[12] = in vitro; settings: Cercopithecus aethiops (African green monkey)
[13] = system: serine protease of the human cytomegalovirus (HCMV); design: method as in PMID 8639546; settings: cited from earlier work
[14] = biological target: T1, ZIKV NS2B/NS3pro; assay: biochemical
[15] = biological target: T3, YFV NS2B/NS3pro (Yellow fever virus, UniProt Q1X881); assay: biochemical
[16] = biological target: T2, CHIKV nsP2pro; assay: biochemical; type: binding
[17] = biological target: T3, YFV NS2B/NS3pro; assay: biochemical; type: binding
[18] = biological target: T3, YFV NS2B/NS3pro; type: binding
[19] = biological target: T2, CHIKV nsP2pro; assay: biochemical
[20] = read-out: Inhibition of protease activity, primary test

COc1ccc([C@@H]2CC(=O)c3c(O)cc(O)cc3O2)cc1O [Hesperetin]
IC50 [1]: 12.6 µM
IC50 [2]: 2 µM
IC50 [3]: 2.5 µM

Cc1cc2nc3c(=O)[nH]c(=O)nc-3n(C[C@H](O)[C@H](O)[C@H](O)CO)c2cc1C [riboflavin]
Tm of protease-riboflavin complex [4]: 51 °C
Prevention of virus entry (virucidal assay) [5]: not observed
Decrease of CHIKV replication, virucidal assay [6]: 44.35%
Tm of protease-riboflavin complex ([7]; protease alone 47 °C): 52 °C
ΔTm ([7]; protein 10 µM, riboflavin 75 µM): 5 °C
Excitation Shift [8]: blue edge excitation shift
Kd ([8]; KD ± STD): 25.1 µM
Prevention of virus entry (virucidal assay) [9]: not observed
Effect on cell viability [10]: does not affect cell viability
LogP [11]: −1.5
CC50 [12]: 72.3 µM
IC50 [13]: 0.3 µM
Inhibition Mode [13]: competitive
Inhibition Mode [14]: competitive
IC100 ([14]; 1 h, read-out: Final concentration to inhibit 100% of protease): 220 µM
IC50 ([14]; IC50 ± STD): 79.4 ± 5 µM
IC50 ([14]; pIC50): 79.4 µM
inhibition at 20 µM [14, 20]: 10%
Final concentration to inhibit 100% of protease [15]: 200 µM
IC50 [15]: 45.7 ± 2.9 µM
Inhibition Mode [15]: competitive
inhibition at 20 µM [15, 20]: 30%
Excitation Shift [16]: blue edge excitation shift
Kd [16]: 2.8 ± 0.7 µM
Excitation Shift [17]: blue edge excitation shift
Kd [17]: 18.2 ± 3.9 µM
Tm of protease-riboflavin complex [18]: 51 °C
ΔTm [18]: 4 °C
IC50 [19]: 0.093 ± 0.0057 µM
Inhibition Mode [19]: competitive
LE (ligand efficiency) [19]: 0.36
Required concentration to inhibit protease (100%) [19]: 5 µM
inhibition at 1 µM [19, 20]: ~85%
inhibition at 20 µM [19, 20]: 100%

COc1ccc2c(O[C@@H]3C[C@H]4C(=O)N[C@]5(C(=O)NS(=O)(=O)C6CC6)C[C@H]5/C=C\CCCCN(C)C(=O)[C@@H]4C3)cc(-c3nc(C(C)C)cs3)nc2c1C [Simeprevir]
IC50 [1]: 2.6 µM
